# Patent publication US9090568B2, “Quinazolinediones and their use” (IMPACT Therapeutics, Inc., priority 2011, dated 2015)
# Read-outs that look alike come from different tables or passages of the source.
# Legend:
# [1] = tested on: MDA-MB-436 cells; assay: Cell proliferation assay (MTS, 7 days); type: cell-based; details: Homo sapiens
# Procedure: Cell Proliferation Assay:
# MDA-MB-436 cells were purchased from American Type Culture Collection (USA). Cells were maintained at 37° C. in a humidified atmosphere with 5% CO2. For proliferation test, MDA-MB-436 cells were seeded in 96-well plates at low density in RPMI-1640 medium supplemented with 10% FBS and incubated for 24 h at 37° C. in a humidified atmosphere with 5% CO2. Cells were further incubated in fresh medium in the presence or absence of the test articles at 37° C. for 7 days. The proliferation of cells was measured with a 3-(4,5-dimethylthiazol-2-yl)-5-(3-carboxymethoxyphenyl)-2-(4-sulfophenyl)-2H-tetrazolium (MTS) assay using a CellTiter 96® Aqueous Non-Radioactive Cell Proliferation kit (Promega). The absorbance at 490 nm (A490) was determined with a Victor X5 2030 Multilabel Reader (Perkin Elmer). IC50 value was calculated using median-effect method (Chou, T. C. (2006). Pharmacol. Rev. 58(3): 621-681).
# [2] = biological target: T1, PARP-1 (Homo sapiens, UniProt P09874); assay: PARP-1 activity assay (HT Universal chemiluminescent PARP Assay Kit); type: biochemical; details: 0.5 unit/well PARP-1, 25° C., 45 minutes; read-out: PARP1 enzyme IC50
# T1 construct: purchased Trevigen
# T1 sequence (P09874 whole entry): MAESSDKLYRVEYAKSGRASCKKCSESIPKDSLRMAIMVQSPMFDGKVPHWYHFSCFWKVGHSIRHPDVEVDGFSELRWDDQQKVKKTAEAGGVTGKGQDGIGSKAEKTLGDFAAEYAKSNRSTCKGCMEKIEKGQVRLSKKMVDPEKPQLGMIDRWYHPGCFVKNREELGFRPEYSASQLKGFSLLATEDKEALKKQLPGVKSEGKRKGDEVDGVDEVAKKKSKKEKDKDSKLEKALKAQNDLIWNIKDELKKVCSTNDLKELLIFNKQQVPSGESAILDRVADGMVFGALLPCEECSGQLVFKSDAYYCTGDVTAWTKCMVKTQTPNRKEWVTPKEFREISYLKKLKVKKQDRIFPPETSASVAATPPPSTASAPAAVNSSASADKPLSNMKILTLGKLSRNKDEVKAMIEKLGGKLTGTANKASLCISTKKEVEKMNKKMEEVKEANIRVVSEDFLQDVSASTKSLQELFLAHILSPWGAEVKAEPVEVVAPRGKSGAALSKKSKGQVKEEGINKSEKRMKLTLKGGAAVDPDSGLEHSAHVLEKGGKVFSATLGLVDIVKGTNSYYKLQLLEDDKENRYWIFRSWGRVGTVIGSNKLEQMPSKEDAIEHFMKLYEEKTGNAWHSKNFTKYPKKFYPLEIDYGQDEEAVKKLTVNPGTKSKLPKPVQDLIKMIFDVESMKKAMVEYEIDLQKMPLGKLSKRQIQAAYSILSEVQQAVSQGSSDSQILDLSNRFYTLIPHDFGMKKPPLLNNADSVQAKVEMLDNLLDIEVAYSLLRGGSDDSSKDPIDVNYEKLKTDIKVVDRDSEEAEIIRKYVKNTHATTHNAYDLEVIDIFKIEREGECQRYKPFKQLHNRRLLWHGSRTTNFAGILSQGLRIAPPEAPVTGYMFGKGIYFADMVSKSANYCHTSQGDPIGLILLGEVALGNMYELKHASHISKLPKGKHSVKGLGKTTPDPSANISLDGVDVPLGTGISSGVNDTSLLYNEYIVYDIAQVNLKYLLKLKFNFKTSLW
# Procedure: PARP-1 activity was determined using a HT Universal chemiluminescent PARP Assay Kit (Trevigen, Gaithersburg, Md., USA). The assay was to measure the incorporation of biotinylated poly(ADP-ribose) onto histone proteins catalyzed by PARP-1 upon activation with DNA. Experimental procedures were followed according to the instruction provided with the assay kit. In brief, PARP-1 (0.5 unit/well) was incubated with activated DNA and NAD^+ in reaction buffer in the presence or absence of test articles in histone-coated strip wells at 25° C. for 45 minutes. After incubation, the strip wells were incubated with Strep-HRP at 25° C. for 60 minutes after washes with PBS containing 0.1% Triton X-100. The chemiluminescence was measured with a Victor X5 2030 Multilabel Reader (Perkin Elmer) immediately after the addition of PeroxyGlow™ to the strip wells. IC50 value was calculated using median-effect method (Chou, T. C. (2006). Pharmacol. Rev. 58(3): 621-681).
# [3] = Pharmacokinetic assay, intravenous and oral administration; type: in vivo, Sprague-Dawley rats; details: after oral administrations in rats; for half-life: Sprague-Dawley, rat, plasma, read-out: t½
# Procedure: The tested articles were given to Sprague-Dawley rats by intravenous and oral administration. Plasma samples were prepared from blood samples which were collected at various time points. The plasma concentrations of the tested articles were determined by specific LC-MS/MS analytical methods. Pharmacokinetic parameters were calculated with WinNonlin®.
# [4] = 168 h, MDA-MB-436 cells, 7 days, MTS, read-out: MDA-MB-436 cells EC50
"EC50 [1, 4] [µM]",IC50 [2] [nM],half-life [3] [min],bioavailability (in words) [3],SMILES,"EC50 ([1]; MDA-MB-436, 168 h, read-out: MDA-MB-436 cells EC50 (μM)) [µM]"
> 0.01,0.1 to 10,–,–,O=C(c1cc(Cn2c(=O)[nH]c(=O)c3ccccc32)ccc1F)N1CCC(n2cc(Br)cn2)CC1 [Example 14],–
> 0.01,0.1 to 10,–,–,Cc1cc(C(=O)N2CCN(C(=O)c3cc(Cn4c(=O)[nH]c(=O)c5ccccc54)ccc3F)CC2)on1 [Example 36],–
> 0.01,0.1 to 10,–,–,O=C(c1ccno1)N1CCN(C(=O)c2cc(Cn3c(=O)[nH]c(=O)c4ccccc43)ccc2F)CC1 [Example 31],–
1 to 100,> 10,–,–,O=C(NC1CC1)C1CCN(C(=O)c2cc(Cn3c(=O)[nH]c(=O)c4ccccc43)ccc2F)CC1 [Example 21],–
0.0001 to 0.01,0.1 to 10,–,–,O=C(c1cc(Cn2c(=O)[nH]c(=O)c3ccccc32)ccc1F)N1CCN(c2ncccn2)CC1 [Example 28],–
> 0.01,0.1 to 10,–,–,CCOC(=O)N1CCN(C(=O)c2cc(Cn3c(=O)[nH]c(=O)c4ccccc43)ccc2F)CC1 [Example 41],–
> 0.01,0.1 to 10,–,–,O=C(OC1CCCC1)N1CCN(C(=O)c2cc(Cn3c(=O)[nH]c(=O)c4ccccc43)ccc2F)CC1 [Example 42],–
> 0.01,0.1 to 10,–,–,O=C(c1cnccn1)N1CCN(C(=O)c2cc(Cn3c(=O)[nH]c(=O)c4ccccc43)ccc2F)CC1 [Example 32],–
> 0.01,0.1 to 10,–,–,Cc1cc(C(=O)N2CCN(C(=O)c3cc(Cn4c(=O)[nH]c(=O)c5ccccc54)ccc3F)CC2)no1 [Example 35],–
1 to 100,0.1 to 10,–,–,O=C(c1cc(Cn2c(=O)[nH]c(=O)c3ccccc32)ccc1F)N1CCC(OC(F)F)CC1 [Example 11],–
> 0.01,0.1 to 10,–,–,Cc1nc(C)c(C(=O)N2CCN(C(=O)c3cc(Cn4c(=O)[nH]c(=O)c5ccccc54)ccc3F)CC2)o1 [Example 37],–
> 0.01,0.1 to 10,–,–,CC1(C(=O)N2CCN(C(=O)c3cc(Cn4c(=O)[nH]c(=O)c5ccccc54)ccc3F)CC2)CCCO1 (stereo not shown) [Example 39],–
–,0.1 to 10,–,–,"O=C(c1cc(Cn2c(=O)[nH]c(=O)c3ccccc32)ccc1F)N1CCNCC1 [Example 30b, 1-(4-fluoro-3-(piperazine-1-carbonyl)benzyl)quinazoline-2,4(1H,3H)-dione hydrochloric acid]",–
> 0.01,0.1 to 10,–,–,O=C(c1cc(Cn2c(=O)[nH]c(=O)c3ccccc32)ccc1F)N1Cc2nccnc2C1 [Example 26],–
> 0.01,0.1 to 10,–,–,O=C(c1cc(Cn2c(=O)[nH]c(=O)c3ccccc32)ccc1F)N1CCC(N2CCCC2)CC1 [Example 17],–
–,> 10,–,–,O=C(O)C1CCN(C(=O)c2cc(Cn3c(=O)[nH]c(=O)c4ccccc43)ccc2F)CC1 [Example 20],–

"EC50 [1, 4] [µM]",IC50 [2] [nM],half-life [3] [min],bioavailability (in words) [3],SMILES,"EC50 ([1]; MDA-MB-436, 168 h, read-out: MDA-MB-436 cells EC50 (μM)) [µM]"
> 0.01,0.1 to 10,–,–,O=C(c1cnco1)N1CCN(C(=O)c2cc(Cn3c(=O)[nH]c(=O)c4ccccc43)ccc2F)CC1 [Example 34],–
1 to 100,0.1 to 10,–,–,O=C(c1cc(Cn2c(=O)[nH]c(=O)c3ccccc32)ccc1F)N1CCC(n2cccn2)CC1 [Example 15],–
–,> 10,–,–,O=C(c1cc(Cn2c(=O)[nH]c(=O)c3ccccc32)ccc1F)N1CCC(ON=C2CCc3ccccc32)CC1 [Example 22],–
1 to 100,0.1 to 10,–,–,O=C(c1cc(Cn2c(=O)[nH]c(=O)c3ccccc32)ccc1Cl)N1CCN(C(=O)C2CC2)CC1 [Example 3],–
1 to 100,0.1 to 10,–,–,O=C(c1cccc(Cn2c(=O)[nH]c(=O)c3ccccc32)c1)N1CCN(C(=O)C2CC2)CC1 [Example 2],–
1 to 100,0.1 to 10,–,–,COC(=O)C1CCN(C(=O)c2cc(Cn3c(=O)[nH]c(=O)c4ccccc43)ccc2F)CC1 [Example 18],–
1 to 100,> 10,–,–,CCNC(=O)OC1CCN(C(=O)c2cc(Cn3c(=O)[nH]c(=O)c4ccccc43)ccc2F)CC1 [Example 19],–
1 to 100,0.1 to 10,–,–,O=C(c1cc(Cn2c(=O)[nH]c(=O)c3ccccc32)ccc1F)N1CC=C(c2ccc(F)cc2)CC1 [Example 29],–
> 0.01,0.1 to 10,> 120,bioavailable,O=C(c1cc(Cn2c(=O)[nH]c(=O)c3ccccc32)ccc1F)N1Cc2cccnc2C1 [Example 25],–
> 0.01,0.1 to 10,–,–,"CC1(C(=O)N2CCN(C(=O)c3cc(Cn4c(=O)[nH]c(=O)c5ccccc54)ccc3F)CC2)CCCN1 (stereo in doubt) [Example 40, (R)-1-(4-fluoro-3-(4-(2-methylpyrrolidine-2-carbonyl)piperazine-1-carbonyl)benzyl)quinazoline-2,4(1H,3H)-dione]",–
1 to 100,> 10,–,–,O=C(c1cc(Cn2c(=O)[nH]c(=O)c3ccccc32)ccc1F)N1CCCCC1 [Example 4],–
> 0.01,0.1 to 10,–,–,Cc1cnc(C(=O)N2CCN(C(=O)c3cc(Cn4c(=O)[nH]c(=O)c5ccccc54)ccc3F)CC2)cn1 [Example 33],–
> 0.01,0.1 to 10,–,–,O=C(c1ccccn1)N1CCN(C(=O)c2cc(Cn3c(=O)[nH]c(=O)c4ccccc43)ccc2F)CC1 [Example 30],–
> 0.01,0.1 to 10,–,–,O=C(c1cc(Cn2c(=O)[nH]c(=O)c3ccccc32)ccc1F)N1Cc2cccc(F)c2C1 [Example 24],–
0.0001 to 0.01,0.1 to 10,–,–,O=C(c1cc(Cn2c(=O)[nH]c(=O)c3ccccc32)ccc1F)N1CCC(Oc2ccccn2)CC1 [Example 12],–
> 0.01,0.1 to 10,> 120,bioavailable,O=C(c1cc(Cn2c(=O)[nH]c(=O)c3ccccc32)ccc1F)N1CCN(C(=O)C2CCCO2)CC1 (stereo not shown) [Example 38],–

SMILES,"EC50 [1, 4] [µM]",IC50 [2] [nM],half-life [3] [min],bioavailability (in words) [3],"EC50 ([1]; MDA-MB-436, 168 h, read-out: MDA-MB-436 cells EC50 (μM)) [µM]"
O=C(c1cc(Cn2c(=O)[nH]c(=O)c3ccccc32)ccc1F)N1CCN(C(=O)C2CC2)CC1 [Example 1],–,0.1 to 10,–,–,> 0.01
